T1: Or10a (Drosophila melanogaster, UniProt Q9VYZ1)
T1 sequence (Q9VYZ1 1-406): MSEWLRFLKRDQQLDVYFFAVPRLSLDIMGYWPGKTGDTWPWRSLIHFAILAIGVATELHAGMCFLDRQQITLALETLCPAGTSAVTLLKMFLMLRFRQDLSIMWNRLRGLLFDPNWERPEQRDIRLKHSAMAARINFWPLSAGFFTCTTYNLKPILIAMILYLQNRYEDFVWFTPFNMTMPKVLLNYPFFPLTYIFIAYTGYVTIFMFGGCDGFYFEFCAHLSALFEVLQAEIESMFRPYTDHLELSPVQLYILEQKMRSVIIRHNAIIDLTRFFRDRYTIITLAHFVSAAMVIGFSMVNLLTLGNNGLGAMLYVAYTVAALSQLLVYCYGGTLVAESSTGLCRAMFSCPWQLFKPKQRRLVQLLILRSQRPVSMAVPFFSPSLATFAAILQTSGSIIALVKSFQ

T2: Or22a (Drosophila melanogaster, UniProt P81909)
T2 sequence (P81909 1-397): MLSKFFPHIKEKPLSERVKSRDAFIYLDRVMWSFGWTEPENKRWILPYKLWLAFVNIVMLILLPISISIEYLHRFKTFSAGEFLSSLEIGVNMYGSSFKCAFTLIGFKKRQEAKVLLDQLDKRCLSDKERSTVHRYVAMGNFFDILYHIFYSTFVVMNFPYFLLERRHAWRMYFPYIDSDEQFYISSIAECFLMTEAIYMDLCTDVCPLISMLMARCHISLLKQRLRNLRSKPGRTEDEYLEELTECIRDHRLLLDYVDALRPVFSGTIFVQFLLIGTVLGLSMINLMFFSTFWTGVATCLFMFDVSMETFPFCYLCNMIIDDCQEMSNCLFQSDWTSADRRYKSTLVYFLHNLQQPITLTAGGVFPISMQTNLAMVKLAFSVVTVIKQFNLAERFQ

T3: OR35a (Drosophila melanogaster, UniProt Q9V3Q2)
T3 sequence (Q9V3Q2 1-409): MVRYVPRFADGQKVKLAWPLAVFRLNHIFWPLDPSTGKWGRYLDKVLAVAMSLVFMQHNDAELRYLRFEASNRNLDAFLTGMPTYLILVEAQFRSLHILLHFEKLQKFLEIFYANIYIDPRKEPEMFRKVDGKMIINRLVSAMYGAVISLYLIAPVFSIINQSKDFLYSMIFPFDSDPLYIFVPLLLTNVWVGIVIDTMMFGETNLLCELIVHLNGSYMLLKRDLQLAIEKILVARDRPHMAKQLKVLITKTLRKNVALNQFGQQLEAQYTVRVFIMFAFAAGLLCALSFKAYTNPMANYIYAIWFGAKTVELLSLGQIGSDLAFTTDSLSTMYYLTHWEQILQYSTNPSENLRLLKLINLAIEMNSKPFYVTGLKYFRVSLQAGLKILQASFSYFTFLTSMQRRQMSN


Tests used:
BdorOBP2 = conditions: ref 39; cited from earlier work
Or10a = target: T1, Or10a; experiment: EIS sensor, Or10a liposomes on gold electrode (Example 1); assay type: binding; conditions: lowest three concentrations
Experimental: (§1) Liposomes were prepared using a phospholipid solution produced by evaporating solutions containing: phosphatidylethanolamine (PE), phosphatidylserine (PS), phosphatidylcholine (PC), and cholesterol (CH) at a molar ratio of 5:3:3:1 in a small glass tube under a stream of N2 gas, then desiccating under vacuum for 1 h. […] To promote the formation of liposomes, 10 freeze/thaw steps were performed by transferring the tube from liquid nitrogen to a 40° C. water bath. Liposomes were then sized by passing the lipid solution 11 times through a 100-nm polycarbonate membrane using an Avestin LiposoFAST extruder unit (Avestin, Germany). Glycerol was added at 10% of the final volume and aliquots at 10 mg/mL were snap frozen in liquid nitrogen and stored at -80° C. Prior to their use, liposomes were defrosted on ice and then destabilized by incubating with 0.2% CHAPS for 15 min at room temperature. Then 200 μg of purified odorant receptor^14 was added to 1 mg of liposomes and rotated at 10 rpm for 1 h at room temperature. […] The Bio-Beads were removed after each incubation period. The OR integrated liposomes were pelleted by centrifugation at 100,000 g for 1 h, and were resuspended in 500 μL of rehydration buffer. Integration of OrXs into liposomes was assessed by density gradient ultracentrifugation (DGU) using Accudenz (Accurate Chemical & Scientific Corporation, USA). […] The sample was then centrifuged at 100,000 g for 4 h at 4° C. Liposomes will float to the top of the gradient after Accudenz DGU due to their low density. 1.3 Electrode Cleaning Gold disk (2 mm) electrodes were cleaned with polishing with Alumina paste for 2 minutes, ultra-sonicated in pure ethanol and then Milli-Q water for 5 minutes each. […] Charge transfer resistance (Rct) of electrodes were calculated by fitting obtained data to a Randles' equivalent circuit [Rs+CPE/(Rct+W)] comprising of a solution resistance (Rs) in series with a constant phase element (CPE) and in parallel with charge transfer resistance (Rct) and Warburg diffusion element. […]

Or22a = target: T2, Or22a; experiment: EIS sensor, Or22a liposomes on gold electrode (Example 1); assay type: binding; conditions: lowest three concentrations
Experimental: as §1

OR35a = target: T3, OR35a; experiment: EIS sensor, Or35a liposomes on gold electrode (Example 1); assay type: binding; conditions: lowest three concentrations
Experimental: as §1

| Molecule | detection limit (BdorOBP2) | further results |
| --- | --- | --- |
| C=CCc1ccc(OC)c(OC)c1 [4-allylveratrole] | ~10^−6 M | – |
| CCCCOC(=O)c1ccccc1C(=O)OCCCC [dibutyl phthalate] | ~10^−6 M | – |
| CC(=O)OCCC(C)C [isoamyl acetate] | ~10^−6 M | – |
| COC(=O)c1ccc(O)cc1 [methy-p-hydroxyl benzoate] | ~10^−6 M | – |
| O=CCc1ccccc1 [phenylacetaldehyde] | ~10^−6 M | – |
| CC(=O)/C=C/C1=C(C)CCCC1(C)C [β-ionone] | ~10^−6 M | – |
| Or10a: insect odorant receptor OrX in liposomes attached to the gold electrode of the EIS sensor (protein, UniProt Q9VYZ1 1-406, looked up, in liposomes, insect odorant receptor OrX in liposomes attached to the gold electrode of the EIS sensor) Odorant receptor 10a: MSEWLRFLKRDQQLDVYFFAVPRLSLDIMGYWPGKTGDTWPWRSLIHFAILAIGVATELHAGMCFLDRQQITLALETLCPAGTSAVTLLKMFLMLRFRQDLSIMWNRLRGLLFDPNWERPEQRDIRLKHSAMAARINFWPLSAGFFTCTTYNLKPILIAMILYLQNRYEDFVWFTPFNMTMPKVLLNYPFFPLTYIFIAYTGYVTIFMFGGCDGFYFEFCAHLSALFEVLQAEIESMFRPYTDHLELSPVQLYILEQKMRSVIIRHNAIIDLTRFFRDRYTIITLAHFVSAAMVIGFSMVNLLTLGNNGLGAMLYVAYTVAALSQLLVYCYGGTLVAESSTGLCRAMFSCPWQLFKPKQRRLVQLLILRSQRPVSMAVPFFSPSLATFAAILQTSGSIIALVKSFQ | – | Sensitivity of the sensor (slope of the linear range) (Or10a): 0.313 units/[log(conc/M)] |
| Or22a: insect odorant receptor OrX in liposomes attached to the gold electrode of the EIS sensor (protein, UniProt P81909 1-397, looked up, in liposomes, insect odorant receptor OrX in liposomes attached to the gold electrode of the EIS sensor) Odorant receptor 22a: MLSKFFPHIKEKPLSERVKSRDAFIYLDRVMWSFGWTEPENKRWILPYKLWLAFVNIVMLILLPISISIEYLHRFKTFSAGEFLSSLEIGVNMYGSSFKCAFTLIGFKKRQEAKVLLDQLDKRCLSDKERSTVHRYVAMGNFFDILYHIFYSTFVVMNFPYFLLERRHAWRMYFPYIDSDEQFYISSIAECFLMTEAIYMDLCTDVCPLISMLMARCHISLLKQRLRNLRSKPGRTEDEYLEELTECIRDHRLLLDYVDALRPVFSGTIFVQFLLIGTVLGLSMINLMFFSTFWTGVATCLFMFDVSMETFPFCYLCNMIIDDCQEMSNCLFQSDWTSADRRYKSTLVYFLHNLQQPITLTAGGVFPISMQTNLAMVKLAFSVVTVIKQFNLAERFQ | – | Sensitivity of the sensor (slope of the linear range) (Or22a): 0.156 units/[log(conc/M)] |
| Or35a: insect odorant receptor OrX in liposomes attached to the gold electrode of the EIS sensor (protein, UniProt Q9V3Q2 1-409, looked up, in liposomes, insect odorant receptor OrX in liposomes attached to the gold electrode of the EIS sensor) Odorant receptor 35a: MVRYVPRFADGQKVKLAWPLAVFRLNHIFWPLDPSTGKWGRYLDKVLAVAMSLVFMQHNDAELRYLRFEASNRNLDAFLTGMPTYLILVEAQFRSLHILLHFEKLQKFLEIFYANIYIDPRKEPEMFRKVDGKMIINRLVSAMYGAVISLYLIAPVFSIINQSKDFLYSMIFPFDSDPLYIFVPLLLTNVWVGIVIDTMMFGETNLLCELIVHLNGSYMLLKRDLQLAIEKILVARDRPHMAKQLKVLITKTLRKNVALNQFGQQLEAQYTVRVFIMFAFAAGLLCALSFKAYTNPMANYIYAIWFGAKTVELLSLGQIGSDLAFTTDSLSTMYYLTHWEQILQYSTNPSENLRLLKLINLAIEMNSKPFYVTGLKYFRVSLQAGLKILQASFSYFTFLTSMQRRQMSN | – | Sensitivity of the sensor (slope of the linear range) (OR35a): 0.116 units/[log(conc/M)] |
